Assays:
BV-2 [1] = assay: Antiinflammatory activity in mouse BV2 cells assessed as inhibition of LPS-stimulated nitric oxide production at 40 uM by Griess assay relative to control; format: functional
BV-2 [2] = assay: Antiinflammatory activity in mouse BV2 cells assessed as inhibition of LPS-stimulated nitric oxide production by Griess assay; format: functional, cell-based
[3] = Cytotoxicity against mouse BV2 cells assessed as cell viability at 40 uM relative to control; format: cell-based, BV-2; details: read-out: Activity

| SMILES | inhibition at 40 µM (BV-2 [1]) [%] | IC50 (BV-2 [2]) [µM] | viability at 40 µM [3] [%] |
| --- | --- | --- | --- |
| C=C1CCC[C@H]2[C@](C)(C[C@@H]3C(=O)C=C(OC)[C@@H]3O)[C@@H](C)CC[C@]12C | > 50 | 28.3 | 174 |
| C=C1CCC[C@H]2[C@](C=O)(Cc3cc(C(=O)OC)c(O)c(OC)c3O)[C@@H](C)CC[C@]12C |  | > 40 | 106 |
| C=C1CCC[C@H]2[C@](C)(Cc3c(O)c(OC)cc4ncoc34)[C@@H](C)CC[C@]12C |  | > 40 | 92.1 |
| C=C1CCC[C@H]2[C@](CO)(Cc3cc(C(=O)OC)c(O)c(OC)c3O)[C@@H](C)CC[C@]12C | > 50 | 24.4 | 160 |
| C=C1CCC[C@H]2[C@](C)(C[C@H]3C(=O)C=C(OC)[C@@H]3O)[C@@H](C)CC[C@]12C | > 50 | 30.1 | 141 |
| C=C1CCC[C@H]2[C@](CO)(Cc3cc(C(=O)OC)cc(OC)c3O)[C@H](C)CC[C@]12C | > 50 | 24.4 | 171 |
| C=C1CCC[C@H]2[C@](C)(Cc3cc(C(=O)OC)ccc3O)[C@@H](C)CC[C@]12C |  | > 40 | 121 |
| C=C1CCC[C@H]2[C@](C)(CC3=C(O)C(=O)C=C(OC)C3=O)[C@@H](C)CC[C@]12C [ILIMAQUINONE] | > 50 | 10.4 | 95.7 |
| C=C1CCC[C@H]2[C@](C)(Cc3cc(C(=O)OC)cc(OC)c3O)[C@@H](C)CC[C@]12C [POLYFIBROSPONGOL A] |  | > 40 | 125 |
| CNC(=N)NCCC[C@H](N)C(=O)O [TILARGININE] |  | 22.1 | 95.5 |
